According to patent publication US10273218B2, “BCL-3 inhibitors” (University College Cardiff Consultants Limited, priority 2014, dated 2019):

What was measured:
[1] = tested on: NF-κB activity in MDA-MB-231 cells; assay: NF-kB luciferase assay, EGF-induced NF-kB activity; format: cell-based, human; conditions: 1 micromolar, 20 hours, then 100 ng/ml EGF for 3 hours
Procedure: MDA-MB-231 is a highly metastatic, human basal epithelial cell line isolated from the pleural effusion of an adenocarcinoma. The cells are ‘triple negative’ as they lack estrogen, progesterone and ERBB2 receptor and they strongly over-express EGFR. The expression of receptors in this line has been confirmed by the host laboratory.
For NF-κB luciferase assays, cells are seeded into clear bottom black 96-well plates (Corning Inc., Lowell, US) in antibiotic free culture media in appropriate density. After about 20-24 hrs, cells are transfected with 10 ng of 3×κB luciferase plasmid and 10 ng of pcDNA3.1-Lacl plasmid per well. […]
After 48 hrs post-transfection with luciferase reporter plasmid, the media is aspirated and cells are lyzed using 50 μl/well of Glo-lysis buffer (Promega, Southampton, UK). […] Subsequently, 30 μl/well of Bright-Glo luciferase substrate (Promega, Southampton, UK) is added to the original plate and is assayed immediately for luminescence activity. The luminescence produced from either reaction is read using a Fluorostar Optima plate reader (BMG tabtech, Bucks, UK). […]
After 48 hrs post-transfection with luciferase reporter plasmid, the media was aspirated and cells were lyzed using 50 μl/well of Glo-lysis buffer (Promega, Southampton, UK). […] The luminescence produced from either reaction was read using a Flurostar Optima plate reader (BMG tabtech, Bucks, UK). […]

[2] = tested on: human breast cancer MDA-MB-231 xenograft; assay: in vivo metastasis mouse Model 1 (seeding and early colonization of circulating tumour cells); design: species or system mice; conditions: 3.5 mg/kg intraperitoneally daily; MDA-MB-231
Procedure: (§1) In all experiments, each compound was administered by intraperitoneally at 3.5 mg/kg.
(§2) One model (Model 1) studied the effect of the compound's ability to inhibit the seeding and early colonization of circulating tumour cells at distal sites, most commonly in the lungs and liver. Human tumour cell lines were injected into the bloodstream of recipient mice, followed by single daily intraperitoneal injections of the compound (3.5 mg/kg in 1% DMSO) for 10 consecutive days. Tumour burden was monitored longitudinally for up to 8 weeks in vivo by live luminescence imaging, and subsequently histology performed on affected organs at the end of the experiment.
as §2, with “Model 1 tested” for “One model (Model 1) studied”, “Bcl3i compounds” for “the compound's ability”, “Bcl3 inhibitor” for “the compound”
The X axis represents the number of days after xenograft and the Y axis is the relative luminescence of the thoracic region by Xenon IVIS scanning of mice following injection of d-luciferin for 10 minutes.
(§3) MDA-MB-231 human breast cancer cells were used in each of the three xenograft models of metastatic breast cancer.

[3] = tested on: MDA-MB-231 human breast cancer cells; assay: mouse Model 2 (colonization, growth and spread of secondary lesions at distal sites); format: in vivo, mice; conditions: 3.5 mg/kg intraperitoneally daily
Procedure: as §1
Another model (Model 2) tested the effect of the compound's ability to inhibit the colonization and subsequent growth and spread of secondary lesions at distal sites. Human tumour cell lines were injected into the bloodstream of recipient mice, followed 2 days later by single daily intraperitoneal injections of the compound (3.5 mg/kg in 1% DMSO) for the entire course of the experiment. Tumour burden was monitored longitudinally for up to 8 weeks in vivo by live luminescence imaging, and subsequently histology performed on affected organs at the end of the experiment.
as §3

[4] = tested on: MDA-MB-436 cells (triple negative breast invasive ductal carcinoma); assay: mouse Model 4 (tumour growth at transplantation site), MDA-MB-436; format: in vivo, mice; conditions: 3.5 mg/kg in 1% DMSO intraperitoneal daily; MDA-MB-436 subcutaneous; caliper tumour volume
Procedure: Another model (Model 4) studied the effect of the compound's ability to inhibit the growth of tumour cells at the transplantation site. Human tumour cell lines were injected subcutaneously into recipient mice, followed 2 days later by single daily intraperitoneal injections of a compound (3.5 mg/kg in 1% DMSO) for the entire course of the experiment. Tumour burden was monitored longitudinally for up to 12 weeks in vivo by palpation and caliper measurements of tumour volume, and subsequently histology performed on tumours at the end of the experiment.
Model 4 tested the effect of compounds of the application to inhibit the growth of tumour cells at the transplantation site. MDA-MB-436 cells were injected subcutaneously into recipient mice, followed 2 days later by single daily intraperitoneal injections of compound 12 (3.5 mg/kg in 1% DMSO) for the entire course of the experiment. Tumour burden was monitored longitudinally for up to 12 weeks in vivo by palpation and caliper measurements of tumour volume, and subsequently histology performed on tumours at the end of the experiment.

COc1ccc(C(=O)Nc2ccccc2C(=O)NCCN2CCOCC2)c(F)c1 [Compound 12, 2-fluoro-4-methoxy-N-(2-((2-morpholinoethyl)carbamoyl)phenyl) benzamide]
greater suppression of NF-kB activity as compared to reference compound A [1]: 25% | suppression of EGF induced NF-kB activity ([1]; MDA-MB-231 NF-kB promoter luciferase reporter): 100% | effect on tumour cell seeding at distal sites (FIG. 8) [2]: most profound effect | effect on subsequent growth and spread of the secondary tumours (FIG. 9) [3]: significant effects | average tumour growth at the transplantation site [4]: significant reductions in average tumour growth
